Data as given in ChEMBL document CHEMBL4266057, “Optimization of Preclinical Metabolism for Somatostatin Receptor Subtype 5-Selective Antagonists” (ACS Med Chem Lett, 2018).
Blank lines part the entries; values can stand above or below the compound they belong to.

Key:
in vitro [1] = conditions: human, liver microsomes
in vitro [2] = conditions: rhesus monkey, liver microsomes
[3] = Drug level in rhesus monkey plasma treated with 4-(8-((2,6-diethoxy-4'-fluorobiphenyl-4-yl)methyl)-3-oxo-2,8-diazaspiro[4.5]decan-2-yl)benzoic acid at 50 mg/kg, po qd for 5 days by HPLC analysis; assay type: ADME, organism-based, Macaca mulatta; conditions: in vivo, 120 h
[4] = Metabolic stability in rat liver microsomes at 1 uM after 30 mins; assay type: ADME, microsome; conditions: read-out: Stability
[5] = Metabolic stability in Beagle dog liver microsomes at 1 uM after 30 mins; assay type: ADME, Canis lupus familiaris, microsome; conditions: read-out: Stability
in vivo [6] = conditions: Sprague-Dawley, rat
[7] = Drug metabolism in rhesus monkey plasma assessed as oxidation of biphenyl ring at 50 mg/kg, po qd for 5 days by HPLC analysis; assay type: ADME, organism-based, Macaca mulatta; conditions: in vivo, 120 h
[8] = Drug metabolism in rhesus monkey plasma assessed as hydroxylation of benzoic acid at 50 mg/kg, po qd for 5 days by HPLC analysis; assay type: ADME, organism-based, Macaca mulatta; conditions: in vivo, 120 h
[9] = Drug metabolism in rhesus monkey plasma assessed as glucuronidation of carboxylic acid at 50 mg/kg, po qd for 5 days by HPLC analysis; assay type: ADME, organism-based, Macaca mulatta; conditions: in vivo, 120 h
[10] = Drug metabolism in rhesus monkey plasma assessed as de-ethylation of ethoxyl group at 50 mg/kg, po qd for 5 days by HPLC analysis; assay type: ADME, organism-based, Macaca mulatta; conditions: in vivo, 120 h
[11] = Fraction unbound in high fat diet fed C57BL/6N mouse plasma at 3 mg/kg, po after 3 hrs; assay type: ADME, organism-based; conditions: in vivo
in vivo [12] = conditions: Sprague-Dawley, rat, po, 2 mg/kg
in vivo [13] = conditions: Sprague-Dawley, rat, iv, 1 mg/kg
in vivo [14] = conditions: rhesus monkey, plasma, po, 5 mg/kg
in vivo [15] = conditions: rhesus monkey, po, 5 mg/kg
in vivo [16] = conditions: Sprague-Dawley, rat; remark: listed apart in the source
in vivo [17] = conditions: rhesus monkey, po, 5 mg/kg; remark: listed apart in the source

SMILES: Cc1cc(-c2ccc(F)c(F)c2F)c(CN2CCC3(CC2)CC(=O)N(c2ccc(C(=O)O)cc2)C3)cc1C(F)(F)F
- remaining at 0.5 h, 1 µM (in vitro [1]): 100%
- remaining at 0.5 h, 1 µM (in vitro [2]): 94%

- Drug metabolism [3]: Metabolite_Detected
SMILES: CCOc1cc(CN2CCC3(CC2)CC(=O)N(c2ccc(C(=O)O[C@@H]4O[C@H](C(=O)O)[C@@H](O)[C@H](O)[C@H]4O)cc2)C3)cc(OCC)c1-c1ccc(F)cc1

SMILES: Cc1cccc2c(CN3CCC4(CC3)CC(=O)N(c3ccc(C(=O)O)cc3)C4)cn(C(C)C)c12
- remaining at 0.5 h, 1 µM (in vitro [1]): 100%
- remaining at 0.5 h, 1 µM (in vitro [2]): 95%

- remaining at 0.5 h, 1 µM (in vitro [1]): 92%
- remaining at 0.5 h, 1 µM [4]: > 80%
- remaining at 0.5 h, 1 µM [5]: > 80%
- AUC (in vivo [6]): 1.67 µM·h
- Drug metabolism [7]: Metabolite_Detected
- Drug metabolism [8]: Metabolite_Detected
- Drug metabolism [9]: Metabolite_Detected
- remaining at 0.5 h, 1 µM (in vitro [2]): 28%
- Drug metabolism [10]: Metabolite_Detected
- Cp(f) [11]: 16 nM
SMILES: CCOc1cc(CN2CCC3(CC2)CC(=O)N(c2ccc(C(=O)O)cc2)C3)cc(OCC)c1-c1ccc(F)cc1

SMILES: O=C(O)c1ccc(N2CC3(CCN(Cc4cc(C(F)(F)F)ccc4C4CC4)CC3)OC2=O)cc1
- bioavailability (in vivo [12]): 85%
- remaining at 0.5 h, 1 µM (in vitro [1]): 99%
- clearance (in vivo [13]): 3.4 mL/min/kg
- concentration at 24 h (in vivo [14]): 470 nM
- AUC (in vivo [15]): 31.2 µM·h
- AUC (in vivo [6]): 8.5 µM·h
- half-life (in vivo [16]): 1.6 h
- remaining at 0.5 h, 1 µM (in vitro [2]): 94%
- Cmax (in vivo [17]): 2990 nM
